The text below walks through data of US10039729B2, “Use of kukoamine A and kukoamine B” (Tianjin Chase Sun Pharmaceutical Co., Ltd., priority 2010, dated 2018).

The test system of series [1] is RAW264.7 cells. Description: Binding and cellular internalization of LPS and CpG DNA to RAW264.7 cells (confocal microscopy). In kind it is cell-based, murine. The note with it: KB 50, 100 and 200 μM, dose-dependent. The method, then: 21.1 Methods: RAW264.7 cells were cultured in 20 mm cell culture dishes for confocal microscopy applications, and diluted to 5×10^5/ml in DMEM supplemented with 10% (v/v) NCS; 1 ml of the above suspension was transferred into each cell culture dishes and cultured at 37° C. in a 5% CO2 humidified incubator for 4 h; for the purpose of experiment three groups were established, medium group, stimulation group and KB treatment group; the concentration and loading patterns of each group were consistent with Embodiment 12; the cells were then fixed with 4% paraform for 10 min after 30 min of culture, and washed thrice with PBS; nucleus were stained with DAPI (100 ng·mL^−1) for 2 min, washed with PBS thrice, mounted with a solution of 50% glycerol and 50% PBS, and stored in dark place until intensity and distribution of fluorescence of LPS and CpG DNA on RAW264.7 cells surface were observed under a confocal microscopy.

The subject of series [2] is RAW264.7 cells. Description: mRNA expression in RAW264.7 cells stimulated by LPS and CpG DNA (real-time PCR). In kind it is cell-based, murine. The method, then:
Cells preparation: Cells suspension was adjusted to 1×10^6/ml in DMEM supplemented with 10% (v/v) NCS; 2 ml of the above suspension was added into 6-well plates and cultured at 37° C. in a 5% CO2 humidified incubator for 2 h; for the purpose of experiment four groups were established: medium group, KB control group, stimulation group and KB treatment group; no reagent was added in medium group; KB control group was added with KB (200 μM); stimulation group was added with LPS (100 ng/ml) and CpG DNA (10 μg/ml); KB treatment group was added with KB (concentrations of 100 and 200 μM) in the meantime of adding LPS and CpG DNA; cells were cultured for 4 h and collected.
RNA extraction: Supernatant was sucked and discarded; 1 ml tripure was added into each well and resuspended with a pipet to make cells completely lysed; the lysate was transferred into 1.5 ml EP tube and incubated at room temperature for 5 min to ensure completed separation of ribonucleoprotein complex; 0.2 ml chloroform was added into EP tube; tube cap was closed and mixed by inversion for 15 sec; EP tube was incubated at room temperature for 10 min until layering of the liquid in tube, then centrifuged at 12000 g at 4_for 15 min; solution was separated into the three-phase; the upper solution (colorless liquid, approximately 0.4 ml) in EP tube was transferred into a new EP tube (DEPC treated); 0.5 ml isopropyl alcohol was added into EP tubes and the liquid was mixed by inversion for several times; EP tube was incubated at room temperature for 10 min to promote RNA precipitating, and centrifuged at 12000 g at 4_for 10 min; the supernatant was discarded; RNA precipitate was added with 1 ml 75% ethanol, vortex washed, and centrifuged at 12000 g at 4 for 10 min; then the supernatant was discarded; EP tube was dried at room temperature for 15 min to remove excessive ethanol; RNA precipitate was diluted with 20 μl ddH2O treated with DEPC, resuspended by pipetting in and out several times, incubated at 55 to 60 for 10 min, and then stored at −70.
Reverse transcription: Reverse-transcription reaction mixture (include: Rnase-free H2O, 10 μl; 5×RT buffer, 4 μl; dNTP mixture, 2 μl; RNase inhibitor, 1 μl; Oligo(dT)20, 1 μl; RNA, 1 μl; ReverTra Ace, 1 μl) was prepared on ice bath, mixed, incubated at 42° C. for 1 h and at 99° C. for 5 min, stored at −20.
PCR amplification: Primers were designed using Primer Premier 5 software by ourselves, and synthesized by Shanghai Sangon Biological Engineering Technology & Services Co., Ltd. The relevant primer sequences are as follows […]
Results were expressed as CT value, and converted into ratio of β-actin, the internal reference items, according to 2^−ΔΔCT methods. […]

Series [3] has as its system murine peritoneal macrophages. Description: mRNA expression of TNF-α and IL-6 in murine peritoneal macrophages stimulated by LPS and CpG DNA. In kind it is cell-based. The note with it: 100, 200 μM, dose-dependent. The text has this:
16.1 Methods: Influence of KB on the mRNA expression of TNF-α and IL-6 in murine peritoneal macrophages stimulated by LPS and CpG DNA was observed. Methods were the same as embodiment 15.

Series [4] deals with murine peritoneal macrophages. Description: Vitality of murine peritoneal macrophages (MTT method). In kind it is cell-based. The settings on record: KB or KB plus LPS or CpG DNA; 24 h. The method, then:
(2) Influence on vitality of murine peritoneal macrophages: Experiment methods are as above. Influences of the combination of KB with LPS or CpG DNA on vitality of murine peritoneal macrophages were assayed.
A general note: Tetrazolium assays rely on reduction of a dye to a coloured formazan, in cell work by metabolically active cells.

For series [5], the system named is RAW264.7 cells. Description: Semi-quantitative RT-PCR of TLR4, TLR9, MyD88 and western blot of NF-κB p65 in RAW264.7 cells. In kind it is cell-based, murine. The settings on record: KB 200 μM. The method, then:
Reaction mixtures were added into 0.2 ml PCR tubes. The reaction mixture included 1 μl cDNA, 10.0 μl 2×Taq Master Mix, 1 μl upstream primer (10 μM), 1 μl downstream primer (10 μM) and 7 μl RNase-free H2O. PCR programs are as follows:
Finally, the PCR products were detected by agarose gel electrophoresis; 1% agarose gel was prepared and cast; 5 μl PCR products of each tube were loaded, electrophoresed at 100 v for 30 min; then gel was took out and scanned; the images were analysed by Quantity One software.
(2) Inhibition of KB on activation of NF-κB p65 in RAW264.7 cells induced by LPS and CpG DNA: Methods are as above; nucleoprotein extraction continued to be incubated for 1 h after sample loading; then, NF-κB p65 in it was assayed using westernblot; the procedure of nucleoprotein extraction and westernblot were consistent with embodiment 23.
On the technique in general: In western blotting, separated proteins are transferred to a membrane and probed.

For `NCCCN(CCCCNCCCNC(=O)CCc1ccc(O)c(O)c1)C(=O)CCc1ccc(O)c(O)c1` [KB, Kukoamine B], the “green fluorescence intensity of 5-FAM (CpG DNA) on the surface of and inside RAW264.7 cells” value in the series on RAW264.7 cells [1] (5-FAM-CpG DNA 10 μg/ml) is reported as “significantly weakened”. The “green fluorescence intensity of FITC (LPS) on the surface of and inside RAW264.7 cells” value in the series with RAW264.7 cells [1] (FITC-LPS 200 ng/ml) is on record as “significantly weakened”. Also, the “mRNA expressions of TNF-α, IL-6, iNOS and COX-2 up-regulated by CpG DNA” value in the series on RAW264.7 cells [2] (100, 200 μM, CpG DNA 10 μg/ml, 4 h, dose-dependent) was “significantly inhibit the mRNA expressions”. Also, in the series with RAW264.7 cells [2] (100, 200 μM, LPS 100 ng/ml, 4 h, dose-dependent), the “mRNA expressions of TNF-α, IL-6, iNOS and COX-2 up-regulated by LPS” value is “significantly inhibit the mRNA expressions”. Also, in the series on RAW264.7 cells [2] (KB 100 and 200 μM, RT-PCR), the “up-regulated expression of TLR4 induced by LPS and CpG DNA” value is “significantly inhibited”; the “up-regulated expression of TLR9 induced by LPS and CpG DNA” value is on record as “significantly inhibited”. Besides, in series [3], the “mRNA expressions of TNF-α and IL-6 up-regulated by CpG DNA” value is listed as “significantly inhibit the mRNA expressions”; the “mRNA expressions of TNF-α and IL-6 up-regulated by LPS” value is recorded as “significantly inhibit the mRNA expressions”. The “vitality of murine peritoneal macrophages” value in series [4] is reported as “The same result was also obtained”. Further, in the series with RAW264.7 cells [5] (4 h, semi-quantitative RT-PCR), the “up-regulated expression of TLR4, TLR9 and MyD88 stimulated by LPS and CpG DNA” value is “inhibited up-regulated expression”. In addition, the “up-regulation of NF-κB p65 in RAW264.7 cell nucleus induced by LPS and CpG DNA” value in the series on RAW264.7 cells [5] (LPS 100 ng/ml, CpG DNA 10 μg/ml, western blot) is “inhibit the up-regulation of NF-κB p65”.
